# Reference: patent US20140163100A1, “Methods of Treating Multiple Sclerosis and Preserving and/or Increasing Myelin Content” (BIOGEN IDEC MA INC., priority 2011, published 2014)
# Where a name gives a salt, the structure may show the parent alone. Read-outs that look alike come from different tables or passages of the source.
# Key:
# [1] = test system: subjects with relapsing-remitting multiple sclerosis; experiment: First Phase 3 clinical trial: quality of life (SF-36, VAS); assay type: in vivo, human; settings: for mean SF-36 PCS score: at 2 years (placebo 42.0); for SF-36 Mental Component Scale score: at 2 years (placebo 44.6); for mean VAS score (global impression of well-being): at 2 years (placebo 60.3)
# Protocol: Subjects participating in the study described in Example 1 were provided an SF-36 questionnaire to measure the subjects' health status and health-related quality of life (“QoL”) at baseline, 6, 12, and 24 months, on eight multi-item, 100-point scales, with higher scores indicating higher QoL. These scores were used to calculate the Physical Component Summary (“PCS”) and Mental Component Summary (“MCS”) scores. In addition, the subjects' global impression of well-being was assessed at baseline and every 3 months using a 100-point, visual analogue scale (VAS) with higher score indicating improvement in well-being.
# mouse MS model = experiment: Mouse MS model, neuroprotective effects; assay type: in vivo; settings: mouse MS model with features of advanced stages of chronic forms of MS
# Source text: Although many well characterized rodent and primate models for MS exist, only recently have the characteristic features of progressive MS been identified in select animal models.
# [2] = test system: subjects with relapsing-remitting multiple sclerosis; experiment: First Phase 3 clinical trial: relapse and disability efficacy; assay type: in vivo, human; settings: for reduction of ARR vs placebo / reduction of risk of confirmed, 12-week disability progression: 2 years; for annualized relapse rate (ARR): 2 years (placebo 0.36); for reduction of risk of confirmed, 12-week disability progression: EDSS; for reduction of proportion of subjects relapsing compared with placebo: at 2 years
# Protocol: The primary endpoint of the study in Example 1 was the proportion of subjects relapsing at 2 years, with relapses confirmed by an independent neurology evaluation committee (“INEC”) to ensure consistent and accurate reporting across sites. Secondary clinical efficacy endpoints at 2 years were the annualized relapse rate (“ARR”) and disability progression using EDSS. Efficacy analyses were conducted on the intention-to-treat population.
# [3] = test system: subjects with relapsing-remitting multiple sclerosis; experiment: First Phase 3 clinical trial: MRI lesion loads; assay type: in vivo, human; settings: 2 years
# Protocol: Subjects from 76 sites out of 198 participating in the study described in Example 1 had MRI scans at baseline, 24 weeks, 1 year and 2 years. Number of new or newly enlarging T2 lesions and number of gadolinium-enhancing (Gd+) lesions at 2 years were secondary endpoints of the study. Analyses were conducted on the MRI intention-to-treat population.
# [4] = test system: subjects with relapsing-remitting multiple sclerosis; experiment: First Phase 3 clinical trial: magnetization transfer ratio (MTR) substudy; assay type: in vivo, human
# Source text: The study described in Example 1 included a substudy to examine change in magnetization transfer ratio (“MTR”) with treatment. MTR imaging has been proposed for use as a biomarker of changes in the myelin content of brain white matter. The aim of the study was to determine change in brain and lesion MTR in RR-MS. MTR scans were obtained in a subset of subjects at baseline and 6, 12 and 24 months, using manufacturer-supplied MT pulse sequences. MTR substudies were implemented at 64 of 76 MRI sites (84%) and included a total of 540 subjects: 176 in the dimethyl fumarate 240 mg bid group, 184 in the dimethyl fumarate 240 mg tid group, and 180 in the placebo group.
# [5] = human, in vivo
# Protocol: A second randomized, double-blind, placebo-controlled, multicenter, phase 3 clinical trial was conducted to evaluate the efficacy and safety of dimethyl fumarate over 2 years in subjects with relapsing-remitting multiple sclerosis (“RR-MS”).
# Subjects 18-55 years of age with RR-MS and an Expanded Disability Status Scale score of 0.0-5.0 (inclusive) and having one or more relapses in the prior 12 months or one or more Gd^+ lesions in the prior 6 weeks were eligible for enrolment. Subjects were randomly assigned to placebo, dimethyl fumarate 240 mg PO twice daily (BID), dimethyl fumarate three times daily (TID), glatiramer acetate 20 mg SC once daily (QD).
# [6] = First Phase 3 clinical trial: safety and tolerability (adverse events); assay type: in vivo, human
# Protocol: Safety and tolerability were assessed by continuous adverse event (“AE”) monitoring and laboratory tests at all monthly visits. Additionally, physical examination, vital signs, and 12-lead ECG were evaluated. As an ethical consideration, subjects' reconsent was required following any protocol-defined disability progression or relapse.
structure (smiles),measurement,setting,value
COC(=O)/C=C/C(=O)OC [dimethyl fumarate],mean SF-36 PCS score,[1]; 240 mg BID,43.4
same,SF-36 Mental Component Scale score,[1]; 240 mg BID,45.5
same,mean VAS score (global impression of well-being),[1]; 240 mg BID,64.3
same,mean SF-36 PCS score,[1]; TID,44.2
same,SF-36 Mental Component Scale score,[1]; TID,46.1
same,mean VAS score (global impression of well-being),[1]; TID,65.7
same,neuroprotective effects,mouse MS model,reduction in demyelination and axonal damage
same,reduction of ARR vs placebo,[2]; 240 mg BID,53%
same,annualized relapse rate (ARR),[2]; 240 mg BID,0.17
same,"reduction of risk of confirmed, 12-week disability progression",[2]; 240 mg BID,38%
same,"Annualized relapse rate at 2 years, % Reduction vs. Placebo","[2]; 240 mg BID, <40 years",63%
same,"Proportion of patients relapsed at 2 years, % Reduction vs. Placebo","[2]; 240 mg BID, <40 years",59%
same,"Time to confirmed disability progression at 2 years, % Reduction vs. Placebo","[2]; 240 mg BID, <40 years",62%
same,reduction of proportion of subjects relapsing compared with placebo,[2]; 240 mg BID,49%
same,"Annualized relapse rate at 2 years, % Reduction vs. Placebo","[2]; 240 mg BID, ≧40 years",34%
same,"Proportion of patients relapsed at 2 years, % Reduction vs. Placebo","[2]; 240 mg BID, ≧40 years",26%
same,"Time to confirmed disability progression at 2 years, % Reduction vs. Placebo","[2]; 240 mg BID, ≧40 years",8%
same,"Annualized relapse rate at 2 years, % Reduction vs. Placebo","[2]; 240 mg TID, <40 years",59%
same,"Proportion of patients relapsed at 2 years, % Reduction vs. Placebo","[2]; 240 mg TID, <40 years",56%
same,"Time to confirmed disability progression at 2 years, % Reduction vs. Placebo","[2]; 240 mg TID, <40 years",38%
same,"Annualized relapse rate at 2 years, % Reduction vs. Placebo","[2]; 240 mg TID, ≧40 years",29%
same,"Proportion of patients relapsed at 2 years, % Reduction vs. Placebo","[2]; 240 mg TID, ≧40 years",37%
same,"Time to confirmed disability progression at 2 years, % Reduction vs. Placebo","[2]; 240 mg TID, ≧40 years",32%
same,reduction of ARR vs placebo,[2]; TID,48%
same,annualized relapse rate (ARR),[2]; TID,0.19
same,"reduction of risk of confirmed, 12-week disability progression",[2]; TID,approximately 34%
same,reduction of proportion of subjects relapsing compared with placebo,[2]; TID,50%
same,efficacy by age subgroup,"[2]; subjects under 40 years vs 40 years or older, 240 mg BID and TID",more efficacious in subjects under 40 years of age
same,reduction of mean number of Gd+ lesions compared with placebo,[3]; 240 mg BID,94%
same,reduction of mean number of new or newly enlarging T2 lesions compared with placebo,[3]; 240 mg BID,85%
same,reduction of mean number of Gd+ lesions compared with placebo,[3]; TID,72%
same,reduction of mean number of new or newly enlarging T2 lesions compared with placebo,[3]; TID,74%
same,increase from baseline in whole brain MTR,[4]; 240 mg bid (placebo −0.386%),0.129%
same,increase from baseline in normal appearing brain tissue MTR,[4]; 240 mg bid (placebo −0.392%),0.190%
same,increase from baseline in whole brain MTR,[4]; 240 mg tid (placebo −0.386%),0.096%
same,increase from baseline in normal appearing brain tissue MTR,[4]; 240 mg tid (placebo −0.392%),0.115%
same,most frequently reported AEs associated with dimethyl fumarate,[5],"flushing, diarrhea, nausea, upper respiratory tract infection, abdominal pain, and proteinuria"
same,AEs reported by subjects,[5]; 2 years,92%
same,subjects discontinuing treatment due to AEs (number),[5]; 2 years,41
same,subjects discontinuing treatment due to AEs (percent),[5]; 2 years,12%
same,subjects withdrew from the study,[5]; 2 years,21%
same,deaths,"[6]; dimethyl fumarate TID arm, result of a motor vehicle accident",One death
same,MS relapse reported as AE,"[6]; human, in vivo",27%
same,opportunistic infections,"[6]; human, in vivo",no opportunistic infections were observed
same,AEs reported by subjects,"[6]; human, in vivo, 2 years",95%
same,Incidence of infections and infestations,"[6]; human, in vivo, 2 years",64-68%
same,Incidence of severe infections and infestations,"[6]; human, in vivo, 2 years",2-3%
same,Severe AEs reported,"[6]; human, in vivo, 2 years",17%
same,subjects discontinuing treatment due to AEs (number),"[6]; human, in vivo, 2 years",68
same,subjects discontinuing treatment due to AEs (percent),"[6]; human, in vivo, 2 years",16%
same,subjects reporting flushing,"[6]; human, in vivo, 2 years",32%
same,subjects withdrew from the study,"[6]; human, in vivo, 2 years",approximately 23%
